These results are taken from ChEMBL document CHEMBL4251689, “Azabicyclic Fused Pyrimidine Derivatives Useful for the Treatment of Alzheimer's Disease” (ACS Med Chem Lett, 2018).

As a reminder, the EC50 is the concentration giving half of the maximal effect.

In the assay the target is Gamma-secretase. Briefly: Inhibition of gamma-secretase (unknown origin) assessed as reduction in amyloid beta (1 to 42) production after 60 mins by cell based AlphaLisa assay. The arrangement: species or system Homo sapiens. For orientation: Alpha assays give light when donor and acceptor beads are brought close together.
In the case of `CNc1nc(N[C@@H]2[C@@H]3CC[C@H]2CN(c2cc(C)ncn2)C3)nc2c1C(C)(C)CN2C1CC(F)(F)C1`, the EC50 was 36 nM.

In the case of `CNc1nc(N[C@@H]2[C@@H]3CC[C@H]2CN(c2cc(C)ncn2)C3)nc2c1C(C)(C)CN2c1ccc(F)cc1`, the EC50 was 14 nM.

For the compound `CNc1nc(N[C@@H]2[C@@H]3CC[C@H]2CN(c2cc(C)ncn2)C3)nc2c1C(C)(C)CN2C12CC(C(F)(F)F)(C1)C2`, the EC50 worked out at 111 nM.

`CNc1nc(N[C@@H]2[C@@H]3CC[C@H]2CN(c2nnc(C)o2)C3)nc2c1C(C)(C)CN2c1ccc(F)cc1`: the EC50 stood at 34 nM.

For `CNc1nc(N[C@@H]2[C@@H]3CC[C@H]2CN(c2ccnnc2)C3)nc2c1C(C)(C)CN2c1ccc(F)cc1`, the 50% effective concentration (EC50) was 19 nM.

With `CNc1nc(N[C@@H]2[C@@H]3CC[C@H]2CN(c2cc(C)ncn2)C3)nc2c1C(C)(C)CCN2c1ccc(F)cc1`, the half-maximal effective concentration (EC50) was found to be 35 nM.
